ChEMBL document CHEMBL1126610, “Amidinium cation as a mimic of allylic carbocation: synthesis and squalene synthetase inhibitory activity of an amidinium analog of a carbocation intermediate” (J Med Chem, 1993)

What was measured:
Squalene synthase [1] = molecular target: T1, Squalene synthase (Rattus norvegicus, UniProt Q02769); experiment: Inhibitory activity against squalene synthetase in rat liver microsomal assay; format: microsomes
T1 sequence (Q02769 whole entry): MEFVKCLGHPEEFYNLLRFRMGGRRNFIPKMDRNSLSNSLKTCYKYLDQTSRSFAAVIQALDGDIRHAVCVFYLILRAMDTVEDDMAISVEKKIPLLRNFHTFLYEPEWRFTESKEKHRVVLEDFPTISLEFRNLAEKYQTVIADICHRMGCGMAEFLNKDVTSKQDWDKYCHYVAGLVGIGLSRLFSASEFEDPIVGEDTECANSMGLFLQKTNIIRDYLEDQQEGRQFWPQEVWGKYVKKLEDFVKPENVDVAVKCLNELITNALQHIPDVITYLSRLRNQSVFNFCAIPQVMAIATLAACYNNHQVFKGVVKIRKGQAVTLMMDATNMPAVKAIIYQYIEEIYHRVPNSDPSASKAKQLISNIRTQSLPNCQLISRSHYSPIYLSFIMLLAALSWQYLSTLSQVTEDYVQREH

Squalene synthase [2] = molecular target: T1, Squalene synthase; experiment: Inhibitory activity against squalene synthetase in the presence of inorganic pyrophosphate in rat liver microsomal assay; format: microsomes

IC50 (Squalene synthase [1]): 6.9 µM | IC50 (Squalene synthase [2]): 0.1 µM
Structure (SMILES): CC(C)=CCC/C(C)=C/CC/C(C)=C/C/N=C/N(C)CC/C=C(\C)CCC=C(C)C
